This note sets out measurements from patent publication US20250282735A1, “BICYCLE COMPOUNDS AS TEAD INHIBITOR” (DONG-A ST CO., LTD., priority 2022, published 2025).

Bounds are passed on as bounds.

The subject of experiment [1] is MSTO-211H cells. Briefly: Proliferation assay (EdU incorporation), MSTO-211H. Format: cell-based. The conditions noted are these: Homo sapiens, 72 h, YAP-driven MSTO-211H (LATS1 mutation), 3 days with inhibitor, 1% serum. How it is done: The anti-proliferative activity of TEAD inhibitors was evaluated in cells with different properties for YAP; “YAP-driven” cells (MSTO-211H, NCI-H226) in which YAP located in the nucleus and “YAP-independent” cells (OCM1, NCI-H28) where YAP located in the cytoplasm. […] TEAD inhibitors were evaluated with cell lines with these YAP profiling and mutational status.
The next day, replace it with cell starvation medium containing 1% serum. After one day of growth in the starvation medium, the cells were incubated for 3 days with TEAD inhibitors in a concentration range of 0.01-10 μM. After 3 days, EdU (Invitrogen) at a concentration of 10 µM was added to the starvation medium and incubated for an additional 24 hours. After removing the starvation medium remaining in each well, wash the wells with PBS. Cells were fixed with 4% paraformaldehyde (Electron microscopy sciences) at room temperature for 20 minutes. After removing the fix solution remaining in each well, wash the wells with PBS and the cells were permeabilized for 40 minutes by adding 0.5% triton X-100 (Sigma Aldrich). After removing the permeabilization solution remaining in each well, the EdU labeling was performed according to the instructions of the manufacturer's instructions (Click-iT™ Cell Reaction Buffer Kit, Invitrogen). After the Click reaction for EdU labeling, nuclei were stained with […] (Thermo Scientific) for total cell count analysis. After plate preparation for detection, Image acquisition was performed using the ImageXpress Micro XLS. The acquired images were analyzed using MetaXpress software (molecular devices). Through this experimental method, it was possible to confirm the inhibitory activity of TEAD inhibitors by detection EdU incorporated into proliferating cells.
IC50 for cell proliferation inhibition activity are shown in the Table 2 below and designated within the following ranges. [+++: ≤0.1 μM, ++: >0.1 μM to ≤1 μM, +: >1 μM to ≤10μ, −: >10 μM]

Experiment [2] deals with TEAD reporter-containing human breast cancer cell line MCF7. Briefly: TEAD reporter (luciferase) assay. Format: cell-based. The settings on record: TEAD reporter MCF7 cells, 24 hours treatment, 1% serum media. The procedure: The TEAD reporter-containing human breast cancer cell line MCF7 (60618, BPS bioscience) was cultured according to the manufacturer's instructions. Cells were plated in 96-well white plates at a density of 30,000 per well and incubated overnight. The following day cells were treated with small molecules in 1% serum media (0.1% v/v DMSO). After 24 hours of the treatment, cell viability was evaluated by using CCK-8 reagent (CK04, Dojindo) and measuring absorbance at 450 nm. Then, the assay for luciferase activity was performed using Dual-Glo® Luciferase Assay System (Promega, E2940) following the manufacturer's instructions. Luminescence intensity was measured and the potency of the compounds was determined by IC50 value generated from non-linear regression analysis of the dose-response curves.
IC50 for luciferase activity are shown in the Table 1 below and designated within the following ranges. [+++: ≤0.1 μM, ++: >0.1 μM to ≤1 μM, +: >1 μM to ≤10 μM, −: >10 μM]

As for `C=CC(=O)Nc1ccc2c(/C=C/C3CCC(F)(F)CC3)cn(C)c2c1` [Compound 13, (E)-N-(3-(2-(4,4-Difluorocyclohexyl)vinyl)-1-methyl-1H-indol-6-yl)acrylamide], the IC50 (as a rule, the concentration that inhibits the measured activity by half) in experiment [1] is 1000 to 10000 nM.
In experiment [1], `C=CC(=O)Nc1ccc2c(c1)c(/C=C/c1ccc(Cl)cc1)c(C)n2C` [Compound 14, (E)-N-(3-(4-Chlorostyryl)-1,2-dimethyl-1H-indol-5-yl)acrylamide] registered an IC50 of 100 to 1000 nM.
For the compound `C=CC(=O)Nc1cnc2c(c1)c(/C=C/c1cccc(F)c1)cn2C` [Compound 40, (E)-N-(3-(3-Fluorostyryl)-1-methyl-1H-pyrrolo[2,3-b]pyridin-5-yl)acrylamide], in experiment [1], the 50% inhibitory concentration (IC50) was 100 to 1000 nM.
The same measure, in the same setting: the result for `C=CC(=O)Nc1cnc2c(c1)c(/C=C/c1cccc(Cl)c1)cn2C` [Compound 41, (E)-N-(3-(3-Chlorostyryl)-1-methyl-1H-pyrrolo[2,3-b]pyridin-5-yl)acrylamide] reads at most 100 nM; that for `C=CC(=O)Nc1cnc2c(c1)c(/C=C/c1ccc(OC)c(F)c1)cn2C` [Compound 42, (E)-N-(3-(3-Fluoro-4-methoxystyryl)-1-methyl-1H-pyrrolo[2,3-b]pyridin-5-yl)acrylamide], 100 to 1000 nM.
As to `C=CC(=O)Nc1cnc2c(c1)c(/C=C/c1ccc(C(C)C)cc1)cn2C` [Compound 43, (E)-N-(3-(4-Isopropylstyryl)-1-methyl-1H-pyrrolo[2,3-b]pyridin-5-yl)acrylamide], the 50% inhibitory concentration (IC50) in experiment [1] lay in the range of 100 to 1000 nM.
Still for that read-out and setting: the result for `C=CC(=O)Nc1cnc2c(c1)c(/C=C/c1ccc(F)c(F)c1)cn2C` [Compound 44, (E)-N-(3-(3,4-Difluorostyryl)-1-methyl-1H-pyrrolo[2,3-b]pyridin-5-yl)acrylamide] reads at most 100 nM.
For `C=CC(=O)Nc1cnc2c(c1)c(/C=C/c1ccc(C(F)(F)F)cc1)cn2C` [Compound 46, (E)-N-(1-Methyl-3-(4-(trifluoromethyl)styryl)-1H-pyrrolo[2,3-b]pyridin-5-yl)acrylamide], the IC50 in experiment [1] fell in the range of 100 to 1000 nM.
Still for that read-out and setting: the result for `C=CC(=O)Nc1cnc2c(c1)c(/C=C/C1CCCCC1)cn2C` [Compound 49, (E)-N-(3-(2-Cyclohexylvinyl)-1-methyl-1H-pyrrolo[2,3-b]pyridin-5-yl)acrylamide] reads at most 100 nM.
In the case of `C=CC(=O)Nc1cnc2c(c1)c(-c1cccc(OCc3cccc(Cl)c3)c1)cn2C` [Compound 52, N-(3-(3-((3-Chlorobenzyl)oxy)phenyl)-1-methyl-1H-pyrrolo[2,3-b]pyridin-5-yl)acrylamide], the IC50 in experiment [1] lay within 100 to 1000 nM.
`C=CC(=O)N(C)c1cnc2c(c1)c(/C=C/C1CCC(F)(F)CC1)cn2C` [Example 66, (E)-N-(3-(2-(4,4-Difluorocyclohexyl)vinyl)-1-methyl-1H-pyrrolo[2,3-b]pyridin-5-yl)-N-methylacrylamide] came in with an IC50 in experiment [1] of 100 to 1000 nM.
For the compound `C=CC(=O)N(Cc1ccccc1)c1cnc2c(c1)c(/C=C/c1ccc(Cl)cc1)cn2C` [Example 67, (E)-N-Benzyl-N-(3-(4-chlorostyryl)-1-methyl-1H-pyrrolo[2,3-b]pyridin-5-yl)acrylamide], the IC50 in experiment [1] lay within 1000 to 10000 nM.
The compound `C=CC(=O)Nc1cnc2c(c1)c(C1=CCCCC1)cn2C` [Example 101, N-(3-(Cyclohex-1-en-1-yl)-1-methyl-1H-pyrrolo[2,3-b]pyridin-5-yl)acrylamide] had an IC50 in experiment [2] of 1000 to 10000 nM.
For the compound `C=CC(=O)Nc1cnc2c(c1)c(-c1ccc(N3CCCCC3)cc1)cn2C` [Example 102, N-(1-Methyl-3-(4-(piperidin-1-yl)phenyl)-1H-pyrrolo[2,3-b]pyridin-5-yl)acrylamide], the IC50 in experiment [2] lay in the range of 1000 to 10000 nM.
Still for that read-out and setting: the result for `C=CC(=O)Nc1cnc2c(c1)c(-c1ccc(C3CCCCC3)cc1)cn2C` [Example 108, N-(3-(4-Cyclohexylphenyl)-1-methyl-1H-pyrrolo[2,3-b]pyridin-5-yl)acrylamide] reads 100 to 1000 nM; that for `C=CC(=O)Nc1cnc2c(c1)c(-c1ccc(C(C)(C)C)cc1)cn2C` [Example 109, N-(3-(4-(tert-Butyl)phenyl)-1-methyl-1H-pyrrolo[2,3-b]pyridin-5-yl)acrylamide], 1000 to 10000 nM.
As for `C=CC(=O)Nc1cnc2c(c1)c(-c1ccc(CCCC)cc1)cn2C` [Example 110, N-(3-(4-Butylphenyl)-1-methyl-1H-pyrrolo[2,3-b]pyridin-5-yl)acrylamide], the IC50 in experiment [2] is 100 to 1000 nM.
For `C=CC(=O)Nc1cnc2c(c1)c(-c1ccc(CCCCCCCCC)cc1)cn2C` [Example 112, N-(1-Methyl-3-(4-nonylphenyl)-1H-pyrrolo[2,3-b]pyridin-5-yl)acrylamide], in experiment [2], the IC50 was over 10000 nM.
`C=CC(=O)Nc1cnc2c(c1)c(-c1cc(C)c(O)c(C)c1)cn2C` [Example 113, N-(3-(4-Hydroxy-3,5-dimethylphenyl)-1-methyl-1H-pyrrolo[2,3-b]pyridin-5-yl)acrylamide]: the IC50 in experiment [2] is over 10000 nM.
In experiment [2], `Cn1cc(/C=C/c2ccc(Cl)cc2)c2cc(NC(=O)CC#N)cnc21` [Example 115, (E)-N-(3-(4-chlorostyryl)-1-methyl-1H-pyrrolo[2,3-b]pyridin-5-yl)-2-cyanoacetamide] had an IC50 of over 10000 nM.
In turn, `C=CS(=O)(=O)Nc1cnc2c(c1)c(/C=C/c1ccc(Cl)cc1)cn2C` [Example 116, (E)-N-(3-(4-Chlorostyryl)-1-methyl-1H-pyrrolo[2,3-b]pyridin-5-yl) ethenesulfonamide] registered a half-inhibitory concentration (IC50) in experiment [2] of 100 to 1000 nM.
The compound `Cn1cc(/C=C/c2ccc(Cl)cc2)c2cc(NS(C)(=O)=O)cnc21` [Example 117, (E)-N-(3-(4-Chlorostyryl)-1-methyl-1H-pyrrolo[2,3-b]pyridin-5-yl) methanesulfonamide] came in with an IC50 in experiment [2] of 100 to 1000 nM.
Regarding `CN(C)C/C=C/C(=O)Nc1cnc2c(c1)c(-c1ccc(C(F)(F)F)cc1)cn2C` [Example 120, (E)-4-(Dimethylamino)-N-(1-methyl-3-(4-(trifluoromethyl)phenyl)-1H-pyrrolo[2,3-b]pyridin-5-yl) but-2-enamide 2,2,2-trifluoroacetate], the IC50 in experiment [2] lay within 1000 to 10000 nM.
As for `C=CC(=O)Nc1ccc2c(c1)c(C1CCCCC1)cn2C` [Example 123, N-(3-Cyclohexyl-1-methyl-1H-indol-5-yl)acrylamide], the IC50 in experiment [2] is at most 100 nM.
Take `C=CC(=O)Nc1ccc2c(c1)c(C1=CCC(C)(C)CC1)cn2C` [Example 124, N-(3-(4,4-dimethylcyclohex-1-en-1-yl)-1-methyl-1H-indol-5-yl)acrylamide]: the half-inhibitory concentration (IC50) in experiment [2] is at most 100 nM.
`C=CC(=O)Nc1ccc2c(c1)c(C1=CCC(OC)CC1)cn2C` (stereo not drawn) [Example 125, N-(3-(4-Methoxycyclohex-1-en-1-yl)-1-methyl-1H-indol-5-yl)acrylamide] had an IC50 in experiment [2] of 1000 to 10000 nM.
With `C=CC(=O)Nc1ccc2c(c1)c(C1CCC(OC)CC1)cn2C` (stereo not drawn) [Example 126, N-(3-(4-Methoxycyclohexyl)-1-methyl-1H-indol-5-yl)acrylamide], in experiment [2], the IC50 is over 10000 nM.
For `C=CC(=O)Nc1cnc2c(c1)c(-c1ccc(Cl)c(F)c1)cn2C(F)F` [Example 133, N-(3-(4-Chloro-3-fluorophenyl)-1-(difluoromethyl)-1H-pyrrolo[2,3-b]pyridin-5-yl)acrylamide], the IC50 in experiment [2] was in the range of 1000 to 10000 nM.
In turn, `C=CC(=O)Nc1cnc2c(c1)c(-c1cccc(C(F)(F)F)c1)cn2C(F)F` [Example 134, N-(1-(Difluoromethyl)-3-(3-(trifluoromethyl)phenyl)-1H-pyrrolo[2,3-b]pyridin-5-yl)acrylamide] had a 50% inhibitory concentration (IC50) in experiment [2] of 100 to 1000 nM.
For the compound `C=CC(=O)Nc1cnc2c(c1)c(-c1ccc(F)c(Cl)c1)cn2C(F)F` [Example 135, N-(3-(3-Chloro-4-fluorophenyl)-1-(difluoromethyl)-1H-pyrrolo[2,3-b]pyridin-5-yl)acrylamide], the 50% inhibitory concentration (IC50) in experiment [2] was 1000 to 10000 nM.
`C=CC(=O)Nc1cnc2c(c1)c(Cc1cccc(Cl)c1)cn2C` [Example 136, N-(3-(3-Chlorobenzyl)-1-methyl-1H-pyrrolo[2,3-b]pyridin-5-yl)acrylamide] showed an IC50 in experiment [2] of at most 100 nM.
In experiment [2], `C=CC(=O)Nc1cnc2c(c1)c(C=C1CCCCC1)cn2C` [Example 137, N-(3-(Cyclohexylidenemethyl)-1-methyl-1H-pyrrolo[2,3-b]pyridin-5-yl)acrylamide] yielded a 50% inhibitory concentration (IC50) of at most 100 nM.
The same measure, in the same setting: to `C=CC(=O)Nc1cnc2c(c1)c(CC1CCCCC1)cn2C` [Example 138, N-(3-(Cyclohexylmethyl)-1-methyl-1H-pyrrolo[2,3-b]pyridin-5-yl)acrylamide] belongs at most 100 nM.
